What was measured:
human V2 receptor = human V2 receptor (Homo sapiens, UniProt P30518); assay: In-vitro receptor binding assay (3H-arginine-8-vasopressin), V2; details: for inhibition at 1 µM / inhibition at 0.1 µM: read-out: Receptor Binding V2 (% Inh. @ concentration in μM)
Protocol: (§1) (A) In-Vitro Binding Assay […] The reaction plates are allowed to sit at room temperature for one hour. The samples are filtered through Unifilter GF/C plates (presoaked in 0.3 polyethyleneimine). The plates are washed 5 times with cold physiological saline containing 0.05% Tween 20. After drying, the bottom of the filter plates are sealed and 0.025 ml of Microscint-20 is added to each filter. The top of the plate is sealed, and the plate is counted. Non-specific binding is determined by the addition of 1.25 μM […]-vasopressin in those wells. % Inh. is calculated as follows: […]

V1a = V1a (Homo sapiens, UniProt P37288); assay: In-vitro receptor binding assay (3H-arginine-8-vasopressin), V1a; details: for inhibition at 0.1 µM: read-out: Receptor Binding V1a (% Inh. @ concentration in μM)
Chain of V1a (P37288 whole entry): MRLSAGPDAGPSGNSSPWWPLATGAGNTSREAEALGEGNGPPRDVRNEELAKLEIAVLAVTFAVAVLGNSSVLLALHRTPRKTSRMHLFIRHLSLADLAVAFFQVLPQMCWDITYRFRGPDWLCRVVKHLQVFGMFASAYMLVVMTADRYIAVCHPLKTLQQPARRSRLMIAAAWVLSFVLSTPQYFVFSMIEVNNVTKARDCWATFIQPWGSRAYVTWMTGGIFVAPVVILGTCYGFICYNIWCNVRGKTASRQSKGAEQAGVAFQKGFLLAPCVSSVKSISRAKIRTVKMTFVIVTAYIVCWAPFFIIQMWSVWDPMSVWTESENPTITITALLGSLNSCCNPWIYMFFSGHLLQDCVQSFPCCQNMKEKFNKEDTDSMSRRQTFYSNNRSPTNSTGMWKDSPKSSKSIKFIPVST
Protocol: as §1

Chain of human V2 receptor (P30518 whole entry): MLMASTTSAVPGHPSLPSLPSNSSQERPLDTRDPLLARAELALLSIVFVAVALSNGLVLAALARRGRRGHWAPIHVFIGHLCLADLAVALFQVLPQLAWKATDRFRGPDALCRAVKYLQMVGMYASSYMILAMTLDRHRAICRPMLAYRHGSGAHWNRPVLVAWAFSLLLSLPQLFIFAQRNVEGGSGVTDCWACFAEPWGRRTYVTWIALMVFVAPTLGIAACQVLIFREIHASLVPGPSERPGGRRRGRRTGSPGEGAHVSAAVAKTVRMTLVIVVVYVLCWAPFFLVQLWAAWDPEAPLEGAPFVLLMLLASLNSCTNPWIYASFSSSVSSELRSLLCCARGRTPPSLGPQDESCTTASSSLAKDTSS

SMILES	IC50 (human V2 receptor)	IC50 (V1a)	inhibition at 1 µM (human V2 receptor; @ 1 μM)	also measured
COc1ccccc1C(=O)Nc1ccc(C(=O)N2CCC3(C=CCCC3)Cc3ccccc32)cc1 (stereo not drawn) [Compound 71]	0.2 µM	0.03 µM		
CN(C)c1ccc(C(=O)N2CCC3(C=CCCC3)Cc3cc(Cl)c(Cl)cc32)cc1 (stereo not drawn) [Compound 72]		0.04 µM		Receptor Binding V2 (% Inh. @ concentration in μM) (human V2 receptor; @ 1 μM): 16% @ 1
CCCCOc1ccc(C(=O)N2CCC3(C=CCCC3)Cc3cc(Cl)c(Cl)cc32)cc1 (stereo not drawn) [Compound 73]		0.09 µM		Receptor Binding V2 (% Inh. @ concentration in μM) (human V2 receptor; @ 1 μM): 10% @ 1
COc1ccc(C(=O)N2CCC3(C=CCCC3)Cc3ccccc32)c(OC)c1 (stereo not drawn) [Compound 74]		0.19 µM		Receptor Binding V2 (% Inh. @ concentration in μM) (human V2 receptor; @ 1 μM): 27% @ 1
COc1ccc(C(=O)N2CCC3(C=CCCC3)Cc3ccccc32)cc1OC (stereo not drawn) [Compound 75]		0.07 µM	1%	
CCCCCCCOc1ccc(C(=O)N2CCC3(C=CCCC3)Cc3ccccc32)cc1 (stereo not drawn) [Compound 76]		1 µM	0%	
O=C(c1ccc(OC(F)(F)F)cc1)N1CCC2(C=CCCC2)Cc2ccccc21 (stereo not drawn) [Compound 77]		0.9 µM	16%	
O=C(c1ccc(O)cc1)N1CCC2(C=CCCC2)Cc2ccccc21 (stereo not drawn) [Compound 78]		0.51 µM	3%	
CC(C)Nc1ccc(C(=O)N2CCC3(C=CCCC3)Cc3ccccc32)cc1 (stereo not drawn) [Compound 79]		0.19 µM	19%	
Cc1ccc(C(=O)Nc2ccc(C(=O)N3CCC4(C=CCCC4)Cc4ccccc43)cc2)cc1C (stereo not drawn) [Compound 81]		0.14 µM	47%	
O=C(Nc1ccccc1)c1ccc(C(=O)N2CCC3(C=CCCC3)Cc3ccccc32)cc1 (stereo not drawn) [Compound 82, 4-(4-Anilinocarbonylbenzoyl)-4-aza-[6,5]-spiro-[5,6]-benzododec-2′-ene]		0.02 µM	41%	
O=C(Nc1ccccc1)Nc1ccc(C(=O)N2CCC3(C=CCCC3)Cc3ccccc32)cc1 (stereo not drawn) [Compound 83]		0.17 µM	25%	
O=C(Nc1ccc(C(=O)N2CCC3(C=CCCC3)Cc3ccccc32)cc1)c1ccc(-c2ccccc2)cc1 (stereo not drawn) [Compound 84]				Receptor Binding V2 (% Inh. @ concentration in μM) (human V2 receptor; @ 1 μM): 2% @ 1; Receptor Binding V1a (% Inh. @ concentration in μM) (V1a; @ 1 μM): 35% @ 1
Cc1cccc(C(=O)Nc2ccc(C(=O)N3CCC4(C=CCCC4)Cc4ccccc43)cc2)c1 (stereo not drawn) [Compound 85]	0.38 µM	0.05 µM		
CC(C)COc1ccc(C(=O)N2CCC3(C=CCCC3)Cc3ccccc32)cc1 (stereo not drawn) [Compound 86]		0.065 µM	10%	
Cc1ccc(C(=O)Nc2ccc(C(=O)N3CCC4(C=CCCC4)Cc4ccccc43)cc2)cc1 (stereo not drawn) [Compound 87]		0.074 µM	47%	
CSc1ccc(C(=O)N2CCC3(C=CCCC3)Cc3ccccc32)cc1 (stereo not drawn) [Compound 92]		0.066 µM	0%	
CSc1cccc(C(=O)Nc2ccc(C(=O)N3CCC4(C=CCCC4)Cc4ccccc43)cc2)c1 (stereo not drawn) [Compound 93]		0.015 µM	26%	
C[S+]([O-])c1ccc(C(=O)N2CCC3(C=CCCC3)Cc3ccccc32)cc1 (stereo not drawn) [Compound 94]		0.02 µM	10%	
C[S+]([O-])c1ccc(C(=O)Nc2ccc(C(=O)N3CCC4(C=CCCC4)Cc4ccccc43)cc2)cc1 (stereo not drawn) [Compound 95]				Receptor Binding V2 (% Inh. @ concentration in μM) (human V2 receptor; @ 1 μM): 0% @ 1; Receptor Binding V1a (% Inh. @ concentration in μM) (V1a; @ 1 μM): 27% @ 1
O=C(Nc1ccc(C(=O)N2CCC3(C=CCCC3)Cc3ccccc32)cc1)c1ccccc1Cl (stereo not drawn) [Compound 96]	0.18 µM	0.012 µM		
Cc1ccccc1NC(=O)c1ccc(C(=O)N2CCC3(C=CCCC3)Cc3ccccc32)cc1 (stereo not drawn) [Compound 98]	0.2 µM	0.027 µM		
O=C(Nc1ccc(C(=O)N2CCC3(C=CCCC3)Cc3ccccc32)cc1)c1c(Cl)cccc1Cl (stereo not drawn) [Compound 102]	0.159 µM	0.046 µM		
O=C(Nc1ccc(C(=O)N2CCC3(C=CCCC3)Cc3ccccc32)cc1)c1ccc(Cl)cc1Cl (stereo not drawn) [Compound 103]	0.274 µM	0.016 µM		
O=C(Nc1ccc(C(=O)N2CCC3(C=CCCC3)Cc3ccccc32)cc1)c1ccncc1 (stereo not drawn) [Compound 104]		0.051 µM	36%	
Cc1ncccc1C(=O)Nc1ccc(C(=O)N2CCC3(C=CCCC3)Cc3ccccc32)cc1 (stereo not drawn) [Compound 105]	1 µM	0.035 µM		
O=C(c1ccccc1F)N1CCC2(C=CCCC2)Cc2ccccc21 (stereo not drawn) [Compound 107]		0.06 µM	21%	

SMILES	IC50 (human V2 receptor)	IC50 (V1a)	inhibition at 1 µM (human V2 receptor; @ 1 μM)	also measured
Cc1ccc(F)cc1C(=O)Nc1ccc(C(=O)N2CCC3(C=CCCC3)Cc3ccccc32)c(Cl)c1 (stereo not drawn) [Compound 111]	0.045 µM	0.8 µM		
Cc1ccccc1C(=O)Nc1ccc(C(=O)N2CCC3(C=CCCC3)Cc3ccccc32)c(Cl)c1 (stereo not drawn) [Compound 112]	0.08 µM	0.062 µM		
Cc1ccc(-c2ccccc2C(=O)Nc2ccc(C(=O)N3CCC4(C=CCCC4)Cc4ccccc43)cc2)cc1 (stereo not drawn) [Compound 114]	0.095 µM	0.09 µM		
COc1cc(NC(=O)c2ccccc2F)ccc1C(=O)N1CCC2(C=CCCC2)Cc2ccccc21 (stereo not drawn) [Compound 115]		0.019 µM		inhibition at 0.1 µM (human V2 receptor; @ 0.1 μM): 37%
COc1cc(NC(=O)c2cc(F)ccc2C)ccc1C(=O)N1CCC2(C=CCCC2)Cc2ccccc21 (stereo not drawn) [Compound 116]	0.091 µM	0.019 µM		
Cc1ccc(-c2ccccc2C(=O)Nc2ccc(C(=O)N3CCC4(C=CCCC4)Cc4ccccc43)c(Cl)c2)cc1 (stereo not drawn) [Compound 117]	0.1 µM			Receptor Binding V1a (% Inh. @ concentration in μM) (V1a; @ 0.1 μM): 30% @ 0.1
O=C(Nc1ccc(C(=O)N2CCC3(C=CCCC3)Cc3ccccc32)c(Cl)c1)c1ccccc1-c1ccccc1 (stereo not drawn) [Compound 118]	0.085 µM			inhibition at 0.1 µM (V1a; @ 0.1 μM): 40%
O=C(Nc1ccc(C(=O)N2Cc3ccccc3CC3(C=CCCC3)C2)cc1)c1ccccc1F (stereo not drawn) [Compound 128, 4-(2-Fluorobenzoyl-4-aminobenzoyl)-3-aza-[6,5]-spiro-[5,6]-benzododec-2′-ene]		0.042 µM		inhibition at 0.1 µM (human V2 receptor; @ 0.1 μM): 33%
O=C(Nc1ccc(C(=O)C2Cc3ccccc3CC3(C=CCCC3)C2)cc1)c1ccccc1-c1ccccc1 (stereo not drawn) [Compound 129]				Receptor Binding V2 (% Inh. @ concentration in μM) (human V2 receptor; @ 0.1 μM): 9% @ 0.1; Receptor Binding V1a (% Inh. @ concentration in μM) (V1a; @ 0.1 μM): 30% @ 0.1
Cc1ccccc1C(=O)Nc1ccc(C(=O)C2Cc3ccccc3CC3(C=CCCC3)C2)cc1 (stereo not drawn) [Compound 130]		0.047 µM		Receptor Binding V2 (% Inh. @ concentration in μM) (human V2 receptor; @ 0.1 μM): 15% @ 0.1
Cc1ccc(F)cc1C(=O)Nc1ccc(C(=O)C2Cc3ccccc3CC3(C=CCCC3)C2)cc1 (stereo not drawn) [Compound 131]		0.1 µM		Receptor Binding V2 (% Inh. @ concentration in μM) (human V2 receptor; @ 0.1 μM): 3% @ 0.1
COC(=O)C1=CC2(CC1)CCN(C(=O)c1ccc(NC(=O)c3ccccc3F)cc1)c1ccccc1C2 (stereo not drawn) [Compound 133]		0.015 µM		inhibition at 0.1 µM (human V2 receptor; @ 0.1 μM): 23%
COC(=O)C1=CC2(CC1)CCN(C(=O)c1ccc(N)cc1)c1ccccc1C2 (stereo not drawn) [Compound 134]				inhibition at 0.1 µM (human V2 receptor; @ 0.1 μM): 16%; inhibition at 0.1 µM (V1a; @ 0.1 μM): 21%
O=C(NCCN1CCCC1)C1=CC2(CC1)CCN(C(=O)c1ccc(NC(=O)c3ccccc3-c3ccccc3)cc1)c1ccccc1C2 (stereo not drawn) [Compound 135]	0.024 µM	0.013 µM		
Cc1ccc(F)cc1C(=O)Nc1ccc(C(=O)N2CCC3(C=C(C(=O)NCCN(C)C)CC3)Cc3ccccc32)c(Cl)c1 (stereo not drawn) [Compound 136]	0.052 µM			inhibition at 0.1 µM (V1a; @ 0.1 μM): 60%
Cc1ccc(F)cc1C(=O)Nc1ccc(C(=O)N2CCC3(C=C(CO)CC3)Cc3ccccc32)c(Cl)c1 (stereo not drawn) [Compound 137]				inhibition at 0.1 µM (human V2 receptor; @ 0.1 μM): 66%; inhibition at 0.1 µM (V1a; @ 0.1 μM): 53%
Cc1ccc(F)cc1C(=O)Nc1ccc(C(=O)N2CCC3(C=C(C=O)CC3)Cc3ccccc32)c(Cl)c1 (stereo not drawn) [Compound 138]				inhibition at 0.1 µM (human V2 receptor; @ 0.1 μM): 57%; inhibition at 0.1 µM (V1a; @ 0.1 μM): 35%
CNCC1=CC2(CC1)CCN(C(=O)c1ccc(NC(=O)c3cc(F)ccc3C)cc1Cl)c1ccccc1C2 (stereo not drawn) [Compound 139]				inhibition at 0.1 µM (human V2 receptor; @ 0.1 μM): 17%; inhibition at 0.1 µM (V1a; @ 0.1 μM): 0%
COCCN1CCN(CC2=CC3(CC2)CCN(C(=O)c2ccc(NC(=O)c4cc(F)ccc4C)cc2Cl)c2ccccc2C3)CC1 (stereo not drawn) [Compound 140]				inhibition at 0.1 µM (human V2 receptor; @ 0.1 μM): 65%; inhibition at 0.1 µM (V1a; @ 0.1 μM): 41%
Cc1ccc(F)cc1C(=O)Nc1ccc(C(=O)N2CCC3(C=C(CN4CCN(CCN5CCOCC5)CC4)CC3)Cc3ccccc32)c(Cl)c1 (stereo not drawn) [Compound 141]	0.056 µM			inhibition at 0.1 µM (V1a; @ 0.1 μM): 44%
Cc1ccc(F)cc1C(=O)Nc1ccc(C(=O)N2CCC3(C=C(CN4CCN(c5ccncc5)CC4)CC3)Cc3ccccc32)c(Cl)c1 (stereo not drawn) [Compound 142]				inhibition at 0.1 µM (human V2 receptor; @ 0.1 μM): 69%; inhibition at 0.1 µM (V1a; @ 0.1 μM): 25%
Cc1ccc(F)cc1C(=O)Nc1ccc(C(=O)N2CCC3(C=C(C(=O)O)CC3)Cc3ccccc32)c(Cl)c1 (stereo not drawn) [Compound 143]				inhibition at 0.1 µM (human V2 receptor; @ 0.1 μM): 67%; inhibition at 0.1 µM (V1a; @ 0.1 μM): 10%
O=CC1=C[C@@]2(CC1)CCN(C(=O)c1ccc(NC(=O)c3ccccc3F)cc1Cl)c1ccccc1C2 [Compound 144]		0.008 µM		inhibition at 0.1 µM (human V2 receptor; @ 0.1 μM): 9%
O=C(Nc1ccc(C(=O)N2CCC3(C=C(C(=O)N4CCN(c5ccncc5)CC4)CC3)Cc3ccccc32)cc1)c1ccccc1-c1ccccc1 (stereo not drawn) [Compound 145]	0.066 µM			inhibition at 0.1 µM (V1a; @ 0.1 μM): 66%
O=C(Nc1ccc(C(=O)N2CCC3(C=C(C(=O)N(CCN4CCOCC4)CCN4CCOCC4)CC3)Cc3ccccc32)cc1)c1ccccc1-c1ccccc1 (stereo not drawn) [Compound 146]				inhibition at 0.1 µM (human V2 receptor; @ 0.1 μM): 39%; inhibition at 0.1 µM (V1a; @ 0.1 μM): 48%
COC(=O)c1ccc(C(=O)N2Cc3ccccc3CC3(C=CCCC3)C2)cc1 (stereo not drawn) [Compound 149]		0.56 µM	54%	
Cc1ccn(-c2ccc(C(=O)N3CCC4(C=CCCC4)Cc4ccccc43)cc2-n2ccc(C)n2)n1 (stereo not drawn) [Compound 151]		0.042 µM	20%	
